According to paper PMC5242521 (PLoS ONE, 2017):
Where two headings read alike, the source gives them in different places.

Key:
[1] = molecular target: T1, OAT1 (Homo sapiens, UniProt Q4U2R8); assay: OAT1 activity: fluorescein accumulation in HEK-OAT1 cells; assay type: cell-based
T1 construct: host or cells: HEK293
T1 sequence (Q4U2R8 1-563): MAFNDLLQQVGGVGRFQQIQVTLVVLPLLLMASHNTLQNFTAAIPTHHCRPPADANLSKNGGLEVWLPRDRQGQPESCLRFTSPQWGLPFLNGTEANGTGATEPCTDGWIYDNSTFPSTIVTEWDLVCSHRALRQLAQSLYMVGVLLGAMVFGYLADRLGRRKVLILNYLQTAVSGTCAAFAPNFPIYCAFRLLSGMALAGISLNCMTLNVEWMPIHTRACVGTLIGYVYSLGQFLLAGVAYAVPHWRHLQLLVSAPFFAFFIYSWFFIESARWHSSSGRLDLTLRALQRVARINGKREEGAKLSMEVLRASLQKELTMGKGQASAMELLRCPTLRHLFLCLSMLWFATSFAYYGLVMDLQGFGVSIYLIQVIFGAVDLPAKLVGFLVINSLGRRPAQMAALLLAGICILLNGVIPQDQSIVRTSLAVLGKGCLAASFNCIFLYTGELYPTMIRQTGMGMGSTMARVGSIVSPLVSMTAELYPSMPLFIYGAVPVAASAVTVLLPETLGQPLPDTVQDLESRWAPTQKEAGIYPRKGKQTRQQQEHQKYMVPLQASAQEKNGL
Experimental: The effects of pyrethroids on activity of ABC and SLC transporters were determined through measuring cellular accumulation or retention of fluorescent or radiolabeled reference substrates for transporters, in the presence or absence of reference inhibitors, as previously described [41].
The total incubation volume with substrates was 200 μL/well. […] An aliquot of cell lysate (5 μL) was then taken for determining cellular protein content by the Bradford method [44].
Intracellular concentrations of reference substrates were initially expressed as fluorescence arbitrary units (for fluorescent dye substrates) or as moles (for radiolabeled substrates) and normalized to cellular protein content, determined by the Bradford method [44]. They were finally used for calculating percentage of transporter activity, according to the following equations [41, 45]: %ABCtransporter activity=([Substrateref inh]-[Substratepyrethroid])×100/([Substrateref inh]-[Substratecontrol]) (1) %SLC transporter activity=([Substratepyrethroid]-[Substratref inh])×100/([Substratecontrol]-[Substrateref inh]) (2) with [Substratepyrethroid] = cellular concentration of reference substrate in the presence of pyrethroid, [Substrateref inh] = cellular concentration of reference substrate in the presence of reference inhibitor and [Substratecontrol] = cellular concentration of reference substrate in control cells not exposed to pyrethroid or reference inhibitor.

[2] = molecular target: T2, OAT3 (Homo sapiens, UniProt Q8TCC7); assay: OAT3 activity: fluorescein accumulation in HEK-OAT3 cells; conditions: for effect on OAT3 activity: pyrethroid 100 μM; for inhibition at 100 μM: human, pH 7.4
T2 sequence (Q8TCC7 1-542): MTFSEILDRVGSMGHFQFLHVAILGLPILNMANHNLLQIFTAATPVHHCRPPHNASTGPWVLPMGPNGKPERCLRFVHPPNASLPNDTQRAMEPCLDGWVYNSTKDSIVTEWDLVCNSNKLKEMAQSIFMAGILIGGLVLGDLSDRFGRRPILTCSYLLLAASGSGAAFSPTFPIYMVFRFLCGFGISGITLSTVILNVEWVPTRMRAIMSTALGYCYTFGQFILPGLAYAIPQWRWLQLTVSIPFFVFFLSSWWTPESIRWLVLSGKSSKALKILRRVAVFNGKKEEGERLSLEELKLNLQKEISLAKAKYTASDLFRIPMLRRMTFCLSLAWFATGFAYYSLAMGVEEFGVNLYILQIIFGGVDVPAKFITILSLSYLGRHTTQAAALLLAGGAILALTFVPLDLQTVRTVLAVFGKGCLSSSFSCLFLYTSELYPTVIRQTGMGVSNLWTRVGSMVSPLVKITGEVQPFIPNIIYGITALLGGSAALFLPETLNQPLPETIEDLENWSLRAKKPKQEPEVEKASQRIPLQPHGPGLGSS
Experimental: The effects of pyrethroids on activity of ABC and SLC transporters were determined through measuring cellular accumulation or retention of fluorescent or radiolabeled reference substrates for transporters, in the presence or absence of reference inhibitors, as previously described. The nature of cells and reference substrates and inhibitors used for transport assays are summarized in S3 Table.
For accumulation assays (performed for all transporters, excepted BCRP), transporter-expressing cells usually cultured in 48-well plates were first incubated at 37°C with reference substrates in the absence (control) or presence of pyrethroids or reference inhibitors, in a well-defined transport assay medium, consisting of 136 mM NaCl, 5.3 mM KCl, 1.1mM KH2PO4, 0.8 mM MgSO4, 1.8 mM CaCl2, 10 mM HEPES, 11 mM D-glucose and adjusted to pH = 7.4 (excepted for MATE transporter assays, for which pH was set to 8.4). The nature of substrates and reference inhibitors and the incubation times with substrates, that varied according to the transporter, were selected in agreement with previous studies and are indicated in S3 Table. The total incubation volume with substrates was 200 μL/well. After washing twice in phosphate-buffered saline (PBS) (200 μL/well/washing), cells were lysed in distilled water (155 μL/well). An aliquot of cell lysate (5 μL) was then taken for determining cellular protein content by the Bradford method. The rest of lysate (150 μL/well) was used for measuring intracellular accumulation of reference substrates by scintillation counting or spectrofluorimetry using a SpectraMax Gemini SX spectrofluorometer (Molecular Devices, Sunnyvale, CA, USA) (excitation and emission wavelengths were 485 and 535 nm, respectively, for rhodamine 123 and fluorescein, and 355 and 460 nm, respectively, for DAPI).
Intracellular concentrations of reference substrates were initially expressed as fluorescence arbitrary units (for fluorescent dye substrates) or as moles (for radiolabeled substrates) and normalized to cellular protein content, determined by the Bradford method. They were finally used for calculating percentage of transporter activity, according to the following equations [41, 45]: %ABCtransporter activity=([Substrateref inh]-[Substratepyrethroid])×100/([Substrateref inh]-[Substratecontrol]) (1) %SLC transporter activity=([Substratepyrethroid]-[Substratref inh])×100/([Substratecontrol]-[Substrateref inh]) (2) with [Substratepyrethroid] = cellular concentration of reference substrate in the presence of pyrethroid, [Substrateref inh] = cellular concentration of reference substrate in the presence of reference inhibitor and [Substratecontrol] = cellular concentration of reference substrate in control cells not exposed to pyrethroid or reference inhibitor.
The initial tested concentration of pyrethroids was 100 μM. […] Such concentrations were calculated using GraphPad Prism software (GraphPad Software, La Jolla, CA), through nonlinear regression based on the four parameter logistic function using the following equations: […]

SMILES | effect on OAT1 activity ([1]; pyrethroid up to 100 μM) | effect on OAT3 activity [2] | effect on OAT1 activity [1] | IC50 [2] | inhibition at 100 μM [2] | effect on OAT1 activity ([1]; pyrethroid up to 100 μM, listed as Allethrin)
C#CCN1CC(=O)N(COC(=O)[C@@H]2C(C=C(C)C)C2(C)C)C1=O (mixture of isomers) [imiprothrin] | failed to alter | inhibited |  |  |  | 
CC(C)=CC1C(C(=O)OCN2C(=O)C3=C(CCCC3)C2=O)C1(C)C (centres unmarked) [tetramethrin] |  |  | No effect (up to 100 μM) | 77.6 µM | 69.3% | 
C#CCC1=C(C)C(OC(=O)C2C(C=C(C)C)C2(C)C)CC1=O (centres unmarked) [prallethrin] | failed to alter | inhibited |  |  |  | 
C=CCC1=C(C)C(OC(=O)C2C(C=C(C)C)C2(C)C)CC1=O (centres unmarked) [allethrin] | failed to alter |  |  | 69.4 µM | 74.8% | No effect (up to 100 μM)
